Reference: US11180494B2, “Substituted amino acids as integrin inhibitors” (Pliant Therapeutics, Inc., priority 2018, dated 2021)

Target: human integrin αvβ6 (Homo sapiens (Human), UniProt P06756+P18564)
Assay: Proximity-based integrin receptor binding assay (ALPHASCREEN) for inhibitor potency
Conditions: inhibition of binding of TGF-b1 LAP to human integrin αvβ6; values given in ranges
Procedure, shortened: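 AlphaScreen: integrin, compound, TGF-b1 LAP, biotinylated anti-LAP antibody and acceptor beads incubated 2 hours, then streptavidin donor beads 30 minutes, at room temperature in 50 mM Tris-HCl pH 7.5, 0.1% BSA, 1 mM CaCl2 and MgCl2. Excitation 680 nm, emission 520-620 nm; IC50 by four-parameter logistic fit.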

Sequence of human integrin αvβ6 (P06756 31-992): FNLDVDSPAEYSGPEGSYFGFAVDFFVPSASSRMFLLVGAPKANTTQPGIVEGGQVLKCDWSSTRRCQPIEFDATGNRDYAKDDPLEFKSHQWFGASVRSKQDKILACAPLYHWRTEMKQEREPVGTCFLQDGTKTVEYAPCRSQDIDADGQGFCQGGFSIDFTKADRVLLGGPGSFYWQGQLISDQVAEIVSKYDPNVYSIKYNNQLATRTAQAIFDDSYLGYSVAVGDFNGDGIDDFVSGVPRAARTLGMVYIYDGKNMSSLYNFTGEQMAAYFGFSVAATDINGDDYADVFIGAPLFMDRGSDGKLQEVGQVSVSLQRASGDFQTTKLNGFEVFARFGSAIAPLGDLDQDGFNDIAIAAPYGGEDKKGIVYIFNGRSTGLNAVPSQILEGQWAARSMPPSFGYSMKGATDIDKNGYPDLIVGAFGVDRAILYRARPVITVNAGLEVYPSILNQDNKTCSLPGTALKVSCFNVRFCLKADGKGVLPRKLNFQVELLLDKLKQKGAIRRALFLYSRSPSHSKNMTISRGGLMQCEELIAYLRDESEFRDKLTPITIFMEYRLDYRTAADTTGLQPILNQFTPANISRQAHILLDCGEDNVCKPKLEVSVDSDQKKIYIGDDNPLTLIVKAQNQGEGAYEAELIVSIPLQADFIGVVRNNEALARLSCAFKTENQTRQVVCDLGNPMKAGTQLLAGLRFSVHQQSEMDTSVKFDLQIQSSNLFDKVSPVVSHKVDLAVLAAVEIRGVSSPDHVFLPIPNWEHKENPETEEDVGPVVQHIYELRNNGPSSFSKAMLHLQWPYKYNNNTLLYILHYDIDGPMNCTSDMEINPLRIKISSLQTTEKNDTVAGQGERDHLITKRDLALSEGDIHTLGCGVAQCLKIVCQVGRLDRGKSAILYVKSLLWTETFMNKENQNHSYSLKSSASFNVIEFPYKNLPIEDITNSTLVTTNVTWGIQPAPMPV
Sequence of human integrin αvβ6 (P18564 22-707): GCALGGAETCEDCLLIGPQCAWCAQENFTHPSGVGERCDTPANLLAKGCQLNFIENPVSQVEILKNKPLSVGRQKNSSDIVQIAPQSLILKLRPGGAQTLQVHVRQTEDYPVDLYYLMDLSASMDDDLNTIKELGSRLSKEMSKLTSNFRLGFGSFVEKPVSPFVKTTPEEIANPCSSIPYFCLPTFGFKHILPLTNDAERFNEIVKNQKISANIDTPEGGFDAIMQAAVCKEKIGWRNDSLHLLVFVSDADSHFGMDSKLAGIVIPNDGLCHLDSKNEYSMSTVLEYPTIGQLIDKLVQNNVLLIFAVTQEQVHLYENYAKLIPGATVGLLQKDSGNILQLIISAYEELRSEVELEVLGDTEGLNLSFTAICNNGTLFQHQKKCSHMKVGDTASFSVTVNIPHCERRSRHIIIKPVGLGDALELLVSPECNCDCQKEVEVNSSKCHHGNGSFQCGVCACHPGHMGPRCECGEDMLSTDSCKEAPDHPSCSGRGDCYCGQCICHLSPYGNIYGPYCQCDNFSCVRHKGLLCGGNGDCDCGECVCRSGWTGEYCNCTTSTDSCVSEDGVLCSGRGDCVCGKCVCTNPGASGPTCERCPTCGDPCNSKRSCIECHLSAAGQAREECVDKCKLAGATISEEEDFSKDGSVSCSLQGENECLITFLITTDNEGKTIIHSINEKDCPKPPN

Row | IC50 [nM] | Structure (SMILES)
1 | < 50 | O=C(NC(CCO[C@H]1C[C@H](CCc2ccc3c(n2)NCCC3)C1)C(=O)O)C1CCCC(F)(F)C1 (stereo partly drawn) [Compound 161, N-(3,3-difluorocyclohexane-1-carbonyl)-O-(trans-3-(2-(5,6,7,8-tetrahydro-1,8-naphthyridin-2-yl)ethyl)cyclobutyl)homoserine]
2 | < 50 | CC1(C(=O)N[C@@H](CCO[C@H]2C[C@H](CCc3ccc4c(n3)NCCC4)C2)C(=O)O)CCOCC1 [Compound 164, N-(4-methyltetrahydro-2H-pyran-4-carbonyl)-O-(trans-3-(2-(5,6,7,8-tetrahydro-1,8-naphthyridin-2-yl)ethyl)cyclobutyl)homoserine]
3 | < 50 | CC(C)(C(=O)N[C@@H](CCO[C@H]1C[C@H](CCc2ccc3c(n2)NCCC3)C1)C(=O)O)C1CCCCC1 [Compound 165, N-(2-cyclohexyl-2-methylpropanoyl)-O-(trans-3-(2-(5,6,7,8-tetrahydro-1,8-naphthyridin-2-yl)ethyl)cyclobutyl)homoserine]
4 | 50 to 250 | O=C(N[C@@H](CCO[C@H]1C[C@H](CCc2ccc3c(n2)NCCC3)C1)C(=O)O)c1ccccc1-c1ccccn1 [Compound 166, N-(2-(pyridin-2-yl)benzoyl)-O-(trans-3-(2-(5,6,7,8-tetrahydro-1,8-naphthyridin-2-yl)ethyl)cyclobutyl)homoserine]
5 | 50 to 250 | O=C(N[C@@H](CCO[C@H]1C[C@H](CCc2ccc3c(n2)NCCC3)C1)C(=O)O)c1ccccc1N1CCOCC1 [Compound 168, N-(2-morpholinobenzoyl)-O-(trans-3-(2-(5,6,7,8-tetrahydro-1,8-naphthyridin-2-yl)ethyl)cyclobutyl)homoserine]
6 | 50 to 250 | CCC(CC)(C(=O)N[C@@H](CCO[C@H]1C[C@H](CCc2ccc3c(n2)NCCC3)C1)C(=O)O)c1ccccc1 [Compound 169, N-(2-ethyl-2-phenylbutanoyl)-O-(trans-3-(2-(5,6,7,8-tetrahydro-1,8-naphthyridin-2-yl)ethyl)cyclobutyl)homoserine]
7 | < 50 | N#CC1(C(=O)N[C@@H](CCO[C@H]2C[C@H](CCc3ccc4c(n3)NCCC4)C2)C(=O)O)CCOCC1 [Compound 171, N-(4-cyanotetrahydro-2H-pyran-4-carbonyl)-O-(trans-3-(2-(5,6,7,8-tetrahydro-1,8-naphthyridin-2-yl)ethyl)cyclobutyl)homoserine]
8 | < 50 | O=C(O)[C@H](CCO[C@H]1C[C@H](CCc2ccc3c(n2)NCCC3)C1)NC(=O)C1(C(F)(F)F)CCOCC1 [Compound 174, O-(trans-3-(2-(5,6,7,8-tetrahydro-1,8-naphthyridin-2-yl)ethyl)cyclobutyl)-N-(4-(trifluoromethyl)tetrahydro-2H-pyran-4-carbonyl)homoserine]
9 | < 50 | Cc1cc(F)cc(C)c1C(=O)NC(CCOC1CC(CCc2ccc3c(n2)NCCC3)C1)C(=O)O (stereo not shown) [Compound 175]
10 | 50 to 250 | CC1(C(=O)N[C@@H](CCO[C@H]2C[C@@H](CCc3ccc4c(n3)NCCC4)C2)C(=O)O)CCOCC1 [Compound 179, N-(4-methyltetrahydro-2H-pyran-4-carbonyl)-O-(cis-3-(2-(5,6,7,8-tetrahydro-1,8-naphthyridin-2-yl)ethyl)cyclobutyl) homoserine]
11 | < 50 | CCC1(C(=O)N[C@@H](CCO[C@H]2C[C@H](CCc3ccc4c(n3)NCCC4)C2)C(=O)O)CCC(F)(F)CC1 [Compound 181, N-(1-ethyl-4,4-difluorocyclohexane-1-carbonyl)-O-(trans-3-(2-(5,6,7,8-tetrahydro-1,8-naphthyridin-2-yl)ethyl)cyclobutyl)homoserine]
12 | 50 to 250 | Cc1ccc2c(c1)N(C(=O)C1(C(=O)N[C@@H](CCO[C@H]3C[C@H](CCc4ccc5c(n4)NCCC5)C3)C(=O)O)CC1)CC2 [Compound 182, N-(1-(6-methylindoline-1-carbonyl)cyclopropane-1-carbonyl)-O-(trans-3-(2-(5,6,7,8-tetrahydro-1,8-naphthyridin-2-yl)ethyl)cyclobutyl)homoserine]
13 | 50 to 250 | O=C(O)[C@H](CCO[C@H]1C[C@@H](CCc2ccc3c(n2)NCCC3)C1)NC(=O)C1(C(F)(F)F)CCOCC1 [Compound 183, O-(cis-3-(2-(5,6,7,8-tetrahydro-1,8-naphthyridin-2-yl)ethyl)cyclobutyl)-N-(4-(trifluoromethyl)tetrahydro-2H-pyran-4-carbonyl)homoserine]
14 | < 50 | O=C(O)[C@H](CCO[C@H]1C[C@H](CCc2ccc3c(n2)NCCC3)C1)NC(=O)C1(Cc2cccnc2)CC1 [Compound 185, N-(1-(pyridin-3-ylmethyl)cyclopropane-1-carbonyl)-O-(trans-3-(2-(5,6,7,8-tetrahydro-1,8-naphthyridin-2-yl)ethyl)cyclobutyl)homoserine]
15 | 250 to 1000 | CC1(C(=O)NC(CCOCCCCc2ccc3c(n2)NCCC3)C(=O)O)CCOCC1 (stereo not shown) [Compound 187, N-(4-methyltetrahydro-2H-pyran-4-carbonyl)-O-(4-(5,6,7,8-tetrahydro-1,8-naphthyridin-2-yl)butyl)homoserine]
16 | 50 to 250 | O=C(NC(CCOCCCCc1ccc2c(n1)NCCC2)C(=O)O)c1c(Cl)cccc1Cl (stereo not shown) [Compound 188, N-(2,6-dichlorobenzoyl)-O-(4-(5,6,7,8-tetrahydro-1,8-naphthyridin-2-yl)butyl)homoserine]
17 | 50 to 250 | O=C(NC(CCOCCCCc1ccc2c(n1)NCCC2)C(=O)O)c1c(Cl)cncc1Cl (stereo not shown) [Compound 189, N-(3,5-dichloroisonicotinoyl)-O-(4-(5,6,7,8-tetrahydro-1,8-naphthyridin-2-yl)butyl)homoserine]
18 | < 50 | CC(C)(C)c1ccc(C2(C(=O)N[C@@H](CCO[C@H]3C[C@H](CCc4ccc5c(n4)NCCC5)C3)C(=O)O)CCC2)cc1 [Compound 190, N-(1-(4-(tert-butyl)phenyl)cyclobutane-1-carbonyl)-O-(trans-3-(2-(5,6,7,8-tetrahydro-1,8-naphthyridin-2-yl)ethyl)cyclobutyl)homoserine]
19 | 50 to 250 | Cc1cncc(Cl)c1C(=O)N[C@@H](CCO[C@H]1C[C@@H](CCc2ccc3c(n2)NCCC3)C1)C(=O)O [Compound 199, N-(3-chloro-5-methylisonicotinoyl)-O-(cis-3-(2-(5,6,7,8-tetrahydro-1,8-naphthyridin-2-yl)ethyl)cyclobutyl)homoserine]

Row | Structure (SMILES) | IC50 [nM]
20 | CC(C)(C)OC(=O)N1CC(C)(C(=O)N[C@@H](CCO[C@H]2C[C@H](CCc3ccc4c(n3)NCCC4)C2)C(=O)O)C1 [Compound 172, N-(1-(tert-butoxycarbonyl)-3-methylazetidine-3-carbonyl)-O-(trans-3-(2-(5,6,7,8-tetrahydro-1,8-naphthyridin-2-yl)ethyl)cyclobutyl)homoserine] | < 50
21 | CC(C)(C)OC(=O)N1CC(C(=O)N[C@@H](CCO[C@H]2C[C@H](CCc3ccc4c(n3)NCCC4)C2)C(=O)O)C1 [Compound 173, N-(1-(tert-butoxycarbonyl)azetidine-3-carbonyl)-O-(trans-3-(2-(5,6,7,8-tetrahydro-1,8-naphthyridin-2-yl)ethyl)cyclobutyl)homoserine] | < 50
22 | CC(C)(C)OC(=O)NCC1(C(=O)N[C@@H](CCO[C@H]2C[C@@H](CCc3ccc4c(n3)NCCC4)C2)C(=O)O)CCOCC1 [Compound 184, N-(4-(((tert-butoxycarbonyl)amino)methyl)tetrahydro-2H-pyran-4-carbonyl)-O-(cis-3-(2-(5,6,7,8-tetrahydro-1,8-naphthyridin-2-yl)ethyl)cyclobutyl)homoserine] | < 50
